The text below walks through data of ChEMBL document CHEMBL4118158, “Lactones from the pericarps of Litsea japonica and their anti-inflammatory activities” (Bioorg Med Chem Lett, 2018).

Data set [1] has as its system RAW264.7. The data set can be described thus: Cytotoxicity against mouse RAW264.7 cells at 30 uM after 24 hrs in absence of LPS by MTT assay. In kind it is cell-based. Conditions: raw264.7, 24 h. In general terms: Formazan colour is commonly taken as a measure of viable cells.
Data set [2] concerns RAW264.7. Description: Anti-inflammatory activity in mouse RAW264.7 cells assessed as inhibition of LPS-induced nitric oxide production after 24 hrs by Griess method. To be noted: RAW264.7, 24 h. In kind it is functional, cell-based. (Nitrite, measured by Griess reagent, commonly stands in for NO production.)
The test system of data set [3] is RAW264.7. The data set can be described thus: Cytotoxicity against mouse RAW264.7 cells at 30 uM after 24 hrs in presence of LPS by MTT assay. Conditions: raw264.7, 24 h. Format: cell-based.
The subject of data set [4] is RAW264.7. Description: Anti-inflammatory activity in mouse RAW264.7 cells assessed as reduction in COX2 protein expression at 30 uM preincubated for 30 mins before LPS stimulation for 24 hrs by Western blot analysis. In kind it is functional, cell-based.
For data set [5], the system named is RAW264.7. The data set can be described thus: Anti-inflammatory activity in mouse RAW264.7 cells assessed as reduction in iNOS protein expression preincubated for 30 mins before LPS stimulation for 24 hrs by Western blot analysis. Format: functional, cell-based. In general terms: A western blot detects proteins with antibodies after separation by electrophoresis.

Data set [6] relates to RAW264.7. Description: Anti-inflammatory activity in mouse RAW264.7 cells assessed as reduction in LPS-induced IL6 mRNA expression preincubated for 30 mins followed by LPS stimulation measured after 8 hrs by real-time qPCR method. Format: functional, cell-based.
For data set [7], the system named is RAW264.7. Description: Anti-inflammatory activity in mouse RAW264.7 cells assessed as reduction in LPS-induced iNOS mRNA expression preincubated for 30 mins followed by LPS stimulation measured after 8 hrs by real-time qPCR method. In kind it is functional, cell-based.
Data set [8] deals with RAW264.7. Description: Anti-inflammatory activity in mouse RAW264.7 cells assessed as reduction in LPS-induced COX2 mRNA expression preincubated for 30 mins followed by LPS stimulation measured after 8 hrs by real-time qPCR method. In kind it is functional, cell-based.
Data set [9] has as its system RAW264.7. The data set can be described thus: Anti-inflammatory activity in mouse RAW264.7 cells assessed as reduction in LPS-induced TNFalpha mRNA expression preincubated for 30 mins followed by LPS stimulation measured after 8 hrs by real-time qPCR method. In kind it is functional, cell-based.

The structures appear in SMILES notation. pIC50: −log10 of the molar value. Active and inactive are the calls of the source. The calls are words filed in the database; no cut-off is given here.

As for `C#CCCCCCCCC/C=C/[C@H]1C(=O)O[C@@H](C)[C@H]1O` [LITSEALACTONE B], the Activity result in [1] and in data set [3] was “Non-Toxic” in each case. Further, in [2], the pIC50 (usually −log10 of the IC50, conventionally taken in molar units) was less than 4.52.
Consider `CCCCC/C=C\C/C=C\CCCCC/C=C1/C(=O)O[C@H](C)[C@H]1O`, for which the Activity entry was “Non-Toxic” in data set [1], “Dose-dependent effect” in data set [5] and “Non-Toxic” in [3]. For the same compound, in data set [4], the result was Active. Moreover, in [2], the pIC50 is 5.36.
`C=CCCCCCCCC/C=C/[C@H]1C(=O)O[C@@H](C)[C@H]1O`: the Activity result in data set [1] and in data set [3] was “Non-Toxic” in each case. In addition, the pIC50 in data set [2] was less than 4.52.
With `C=CCCCCCCCCC/C=C1\C(=O)O[C@H](C)[C@H]1O`, the Activity result in data set [1] was “Non-Toxic”; in [5], “Dose-dependent effect”; in data set [3], “Non-Toxic”. Moreover, the pIC50 in [2] was 5.35.
Turning to `C=CCCCCCCCCC/C=C1/C(=O)O[C@H](C)[C@H]1O`, the Activity result in data set [1] was “Non-Toxic”; in [6], “Dose-dependent effect”; in data set [7] it was “Dose-dependent effect”; in data set [8], “Dose-dependent effect”; in [9], “Dose-dependent effect”; in [5], “Dose-dependent effect”. For the same compound, in data set [3], the Activity result is recorded as “Non-Toxic”. For the same compound, in data set [4], the result was Active. In data set [2], the pIC50 was 5.51.
In the case of `C#CCCCCCCCCC/C=C1\C(=O)O[C@H](C)[C@H]1O`, the Activity result is “Non-Toxic” in data set [1], “Dose-dependent effect” in data set [5] and “Non-Toxic” in [3]. The negative logarithm of the IC50 (pIC50) in data set [2] was 4.89.
Turning to `C=CCCCCCCCC/C=C/C1=CC(C)OC1=O` (centres undefined), the Activity result in data set [1] and in data set [3] was “Non-Toxic” each time. In addition, the pIC50 in data set [2] was less than 4.52.
As for `C=C/C=C/CCCCCCCCC/C=C1/C(=O)O[C@H](C)[C@H]1O`, the Activity result in data set [1] is “Non-Toxic”; in data set [5] it was “Dose-dependent effect”; in [3], “Non-Toxic”. Moreover, in data set [4], the result was Active. Also, the pIC50 in data set [2] is 5.24.
`CC1=C(O)C(=O)C=C2C1=CC=C1[C@@]2(C)CC[C@@]2(C)[C@@H]3C[C@](C)(C(=O)O)CC[C@]3(C)CC[C@]12C` [CELASTROL]: in data set [2], the pIC50 was 6.00.
`CCCCCCCCCC/C=C/C1=CC(C)OC1=O` (centres undefined): the Activity entry in data set [1] and in [3] was “Non-Toxic” throughout. Moreover, the pIC50 in data set [2] was less than 4.52.
Consider `C#CCCCCCCCC/C=C/C1=CC(C)OC1=O` (centres undefined), for which the Activity result in data set [1] and in [3] was “Non-Toxic” throughout. Besides, the negative logarithm of the IC50 (pIC50) in data set [2] was less than 4.52.
For `C=C/C=C/CCCCCCCC/C=C/C1=CC(C)OC1=O` (centres undefined), the Activity entry in [1] and in data set [3] was “Non-Toxic” throughout. Moreover, in data set [2], the pIC50 is less than 4.52.
Regarding `CCCCCCCCCCC/C=C1/C(=O)O[C@H](C)[C@H]1O`, the Activity result in data set [1] and in data set [3] was “Non-Toxic” throughout. In data set [2], the pIC50 was 5.54.
As to `C=CCCCCCCCCC/C=C1/C(=O)O[C@@H](C)[C@H]1O`, the Activity entry in [1] and in data set [3] was “Non-Toxic” each time. For the same compound, in data set [2], the pIC50 is 5.52.
As to `C#CCCCCCCCCC/C=C1/C(=O)O[C@H](C)[C@H]1O`, the Activity entry in data set [1] was “Non-Toxic”; in data set [5], “Dose-dependent effect”; in data set [3], “Non-Toxic”. The result in data set [4] was Active. Also, in data set [2], the pIC50 is 5.21.
Take `CCCCCCCCCCCC/C=C/C1=CC(C)OC1=O` (centres undefined): the Activity entry in data set [1] and in data set [3] was “Non-Toxic” throughout. Moreover, the pIC50 in [2] was less than 4.52.
In the case of `C=CCCCCCCCC/C=C/[C@H]1C(=O)O[C@H](C)[C@@H]1O`, the Activity entry in [1] and in data set [3] was “Non-Toxic” throughout. For the same compound, in [2], the pIC50 was 4.85.
As to `CC/C=C/CCCCCCCCC/C=C1/C(=O)O[C@H](C)[C@H]1O`, the Activity entry in data set [1] and in data set [3] was “Non-Toxic” throughout. Further, in data set [2], the pIC50 was 5.60.
On to `CCCCC/C=C/C/C=C/CCCC/C=C/C1=CC(C)OC1=O` (centres undefined), for which the Activity result in data set [1] and in data set [3] was “Non-Toxic” in each case. Moreover, the pIC50 in [2] was less than 4.52.
